Measurements: ChEMBL document CHEMBL4828734, “Discovery of High-Affinity Inhibitors of the BPTF Bromodomain” (J Med Chem, 2021)
One block for each molecule: values may come before it. Active and inactive are the calls of the source. The rule behind the calls is not given here.

Key:
[1] = target: T1, Nucleosome-remodeling factor subunit BPTF (Homo sapiens, UniProt Q12830); assay: Inhibition of N-terminal GST-tagged human BPTF (2914 to 3037 residues) expressed in Escherichia coli BL21-CodonPlus (DE3) cells by HTRF assay
[2] = target: T1, Nucleosome-remodeling factor subunit BPTF; assay: Binding affinity to BPTF (unknown origin)
[3] = target: T1, Nucleosome-remodeling factor subunit BPTF; assay: Binding affinity to N-terminal GST-tagged human BPTF (2914 to 3037 residues) expressed in Escherichia coli BL21-CodonPlus (DE3) cells assessed as change in melting temperature at 12.5 uM by thermal shift assay
[4] = target: T1, Nucleosome-remodeling factor subunit BPTF; assay: Binding affinity to N-terminal GST-tagged human BPTF (2914 to 3037 residues) expressed in Escherichia coli BL21-CodonPlus (DE3) cells by SPR assay
[5] = target: T1, Nucleosome-remodeling factor subunit BPTF; assay: Binding affinity to N-terminal GST-tagged human BPTF (2914 to 3037 residues) expressed in Escherichia coli BL21-CodonPlus (DE3) cells assessed as change in melting temperature at 100 uM by thermal shift assay
[6] = target: T1, Nucleosome-remodeling factor subunit BPTF; assay: Binding affinity to N-terminal GST-tagged human BPTF (2914 to 3037 residues) expressed in Escherichia coli BL21-CodonPlus (DE3) cells assessed as change in melting temperature at 50 uM by thermal shift assay
[7] = target: T1, Nucleosome-remodeling factor subunit BPTF; assay: Binding affinity to N-terminal GST-tagged human BPTF (2914 to 3037 residues) expressed in Escherichia coli BL21-CodonPlus (DE3) cells assessed as change in melting temperature at 25 uM by thermal shift assay
[8] = test system: MV4-11; assay: Induction of cell cycle arrest in human MV4-11 cells assessed as accumulation at S phase after 24 hrs by propidium iodide staining based flow cytometry analysis; type: functional
[9] = test system: MV4-11; assay: Induction of apoptosis in human MV4-11 cells at 5 to 20 uM after 24 hrs by Annexin V-FITC and propidium iodide staining based flow cytometry analysis; type: functional, cell-based; details: dose 5-20 µM
[10] = target: CREB-binding protein (Homo sapiens) (UniProt Q92793); assay: Inhibition of CBP-BRD (unknown origin) at 1 uM using acetylated H4 as substrate incubated for 1 hr by AlphaScreen assay
Chain of CREB-binding protein (Homo sapiens) (Q92793 2-2442 limits assumed): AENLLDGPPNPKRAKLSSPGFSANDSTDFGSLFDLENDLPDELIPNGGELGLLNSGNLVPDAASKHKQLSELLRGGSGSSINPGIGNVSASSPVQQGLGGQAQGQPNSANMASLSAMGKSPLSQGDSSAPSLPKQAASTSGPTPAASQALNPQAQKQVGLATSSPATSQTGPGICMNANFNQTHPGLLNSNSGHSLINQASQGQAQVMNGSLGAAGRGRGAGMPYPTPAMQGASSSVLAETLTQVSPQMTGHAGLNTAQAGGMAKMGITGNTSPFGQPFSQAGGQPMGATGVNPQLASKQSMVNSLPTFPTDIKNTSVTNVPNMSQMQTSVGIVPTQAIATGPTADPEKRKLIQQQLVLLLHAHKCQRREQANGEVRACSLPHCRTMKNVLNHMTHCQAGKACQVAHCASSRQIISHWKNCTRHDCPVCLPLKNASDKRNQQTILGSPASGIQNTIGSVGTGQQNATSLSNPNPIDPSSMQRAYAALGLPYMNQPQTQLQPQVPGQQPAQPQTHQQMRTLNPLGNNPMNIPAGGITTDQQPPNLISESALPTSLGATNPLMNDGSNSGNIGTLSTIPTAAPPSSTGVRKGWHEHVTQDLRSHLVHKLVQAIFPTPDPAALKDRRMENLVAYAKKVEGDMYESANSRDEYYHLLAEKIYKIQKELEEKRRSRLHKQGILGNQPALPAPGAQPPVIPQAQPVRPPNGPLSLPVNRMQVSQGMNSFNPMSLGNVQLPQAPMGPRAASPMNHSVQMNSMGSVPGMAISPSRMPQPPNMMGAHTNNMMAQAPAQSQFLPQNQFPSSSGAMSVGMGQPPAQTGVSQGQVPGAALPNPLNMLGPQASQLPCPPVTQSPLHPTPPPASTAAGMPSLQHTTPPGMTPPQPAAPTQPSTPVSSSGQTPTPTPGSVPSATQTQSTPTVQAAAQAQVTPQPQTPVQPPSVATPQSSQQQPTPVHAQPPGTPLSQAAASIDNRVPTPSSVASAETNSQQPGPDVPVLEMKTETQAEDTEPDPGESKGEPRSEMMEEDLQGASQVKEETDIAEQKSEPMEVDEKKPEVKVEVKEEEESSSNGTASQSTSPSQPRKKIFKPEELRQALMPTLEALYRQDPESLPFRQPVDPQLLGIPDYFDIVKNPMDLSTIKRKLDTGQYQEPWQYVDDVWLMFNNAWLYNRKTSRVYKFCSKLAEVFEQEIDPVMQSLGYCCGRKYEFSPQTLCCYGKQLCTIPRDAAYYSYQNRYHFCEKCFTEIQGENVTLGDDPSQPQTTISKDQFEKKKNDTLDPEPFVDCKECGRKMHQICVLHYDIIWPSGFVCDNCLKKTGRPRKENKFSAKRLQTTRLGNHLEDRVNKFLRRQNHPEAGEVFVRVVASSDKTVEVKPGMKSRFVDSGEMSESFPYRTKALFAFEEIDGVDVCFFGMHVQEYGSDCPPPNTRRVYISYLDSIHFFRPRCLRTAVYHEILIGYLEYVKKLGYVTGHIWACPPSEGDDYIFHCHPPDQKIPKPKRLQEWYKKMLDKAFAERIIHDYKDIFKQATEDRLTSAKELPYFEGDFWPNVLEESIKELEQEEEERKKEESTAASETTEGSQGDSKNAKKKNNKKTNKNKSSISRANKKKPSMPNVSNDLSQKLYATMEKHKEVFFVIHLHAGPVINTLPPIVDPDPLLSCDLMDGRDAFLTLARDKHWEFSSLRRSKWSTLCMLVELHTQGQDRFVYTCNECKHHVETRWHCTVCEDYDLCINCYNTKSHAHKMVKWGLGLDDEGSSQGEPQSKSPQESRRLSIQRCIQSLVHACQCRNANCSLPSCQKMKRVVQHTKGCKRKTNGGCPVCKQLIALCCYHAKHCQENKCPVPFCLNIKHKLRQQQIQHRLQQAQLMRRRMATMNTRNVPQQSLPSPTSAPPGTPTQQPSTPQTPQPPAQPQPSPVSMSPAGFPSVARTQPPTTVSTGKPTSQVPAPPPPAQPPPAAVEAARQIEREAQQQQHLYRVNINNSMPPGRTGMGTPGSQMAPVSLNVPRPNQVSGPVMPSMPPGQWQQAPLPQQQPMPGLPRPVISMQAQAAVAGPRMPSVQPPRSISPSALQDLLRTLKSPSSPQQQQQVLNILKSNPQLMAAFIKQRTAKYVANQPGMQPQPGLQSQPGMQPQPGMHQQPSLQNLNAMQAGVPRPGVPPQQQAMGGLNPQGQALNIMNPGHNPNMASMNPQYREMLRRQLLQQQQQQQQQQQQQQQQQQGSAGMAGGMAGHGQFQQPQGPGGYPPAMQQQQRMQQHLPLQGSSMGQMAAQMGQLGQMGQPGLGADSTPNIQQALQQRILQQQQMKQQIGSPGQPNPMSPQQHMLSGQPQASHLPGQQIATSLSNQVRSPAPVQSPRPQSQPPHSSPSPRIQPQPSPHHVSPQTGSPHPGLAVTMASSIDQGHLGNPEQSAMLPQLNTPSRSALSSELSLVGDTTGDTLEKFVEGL

[11] = test system: MRC5; assay: Cytotoxicity against human MRC5 assessed as reduction in cell viability at 100 uM after 3 days by Celltiter-Glo assay; type: cell-based; details: mrc5, 72 h, time 3 day
[12] = test system: MV4-11; assay: Downregulation of c-Myc protein expression in human MV4-11 cells after 24 hrs by Western blot analysis; type: functional, cell-based; details: dose 0.6-50 µM
[13] = target: Bromodomain-containing protein 4 (Homo sapiens) (UniProt O60885); assay: Binding affinity to BRD4-BD2 (unknown origin) assessed as change in melting temperature at 50 uM by thermal shift assay
[14] = test system: HUVEC; assay: Cytotoxicity against HUVEC assessed as reduction in cell viability at 100 uM after 3 days by Celltiter-Glo assay; type: cell-based; details: human, 72 h, time 3 day
[15] = target: SWI/SNF-related matrix-associated actin-dependent regulator of chromatin subfamily A member 2 (Homo sapiens) (UniProt P51531); assay: Inhibition of SMARCA2-BRD (unknown origin) at 1 uM using acetylated H4 as substrate incubated for 1 hr by AlphaScreen assay
Chain of SWI/SNF-related matrix-associated actin-dependent regulator of chromatin subfamily A member 2 (Homo sapiens) (P51531 whole entry): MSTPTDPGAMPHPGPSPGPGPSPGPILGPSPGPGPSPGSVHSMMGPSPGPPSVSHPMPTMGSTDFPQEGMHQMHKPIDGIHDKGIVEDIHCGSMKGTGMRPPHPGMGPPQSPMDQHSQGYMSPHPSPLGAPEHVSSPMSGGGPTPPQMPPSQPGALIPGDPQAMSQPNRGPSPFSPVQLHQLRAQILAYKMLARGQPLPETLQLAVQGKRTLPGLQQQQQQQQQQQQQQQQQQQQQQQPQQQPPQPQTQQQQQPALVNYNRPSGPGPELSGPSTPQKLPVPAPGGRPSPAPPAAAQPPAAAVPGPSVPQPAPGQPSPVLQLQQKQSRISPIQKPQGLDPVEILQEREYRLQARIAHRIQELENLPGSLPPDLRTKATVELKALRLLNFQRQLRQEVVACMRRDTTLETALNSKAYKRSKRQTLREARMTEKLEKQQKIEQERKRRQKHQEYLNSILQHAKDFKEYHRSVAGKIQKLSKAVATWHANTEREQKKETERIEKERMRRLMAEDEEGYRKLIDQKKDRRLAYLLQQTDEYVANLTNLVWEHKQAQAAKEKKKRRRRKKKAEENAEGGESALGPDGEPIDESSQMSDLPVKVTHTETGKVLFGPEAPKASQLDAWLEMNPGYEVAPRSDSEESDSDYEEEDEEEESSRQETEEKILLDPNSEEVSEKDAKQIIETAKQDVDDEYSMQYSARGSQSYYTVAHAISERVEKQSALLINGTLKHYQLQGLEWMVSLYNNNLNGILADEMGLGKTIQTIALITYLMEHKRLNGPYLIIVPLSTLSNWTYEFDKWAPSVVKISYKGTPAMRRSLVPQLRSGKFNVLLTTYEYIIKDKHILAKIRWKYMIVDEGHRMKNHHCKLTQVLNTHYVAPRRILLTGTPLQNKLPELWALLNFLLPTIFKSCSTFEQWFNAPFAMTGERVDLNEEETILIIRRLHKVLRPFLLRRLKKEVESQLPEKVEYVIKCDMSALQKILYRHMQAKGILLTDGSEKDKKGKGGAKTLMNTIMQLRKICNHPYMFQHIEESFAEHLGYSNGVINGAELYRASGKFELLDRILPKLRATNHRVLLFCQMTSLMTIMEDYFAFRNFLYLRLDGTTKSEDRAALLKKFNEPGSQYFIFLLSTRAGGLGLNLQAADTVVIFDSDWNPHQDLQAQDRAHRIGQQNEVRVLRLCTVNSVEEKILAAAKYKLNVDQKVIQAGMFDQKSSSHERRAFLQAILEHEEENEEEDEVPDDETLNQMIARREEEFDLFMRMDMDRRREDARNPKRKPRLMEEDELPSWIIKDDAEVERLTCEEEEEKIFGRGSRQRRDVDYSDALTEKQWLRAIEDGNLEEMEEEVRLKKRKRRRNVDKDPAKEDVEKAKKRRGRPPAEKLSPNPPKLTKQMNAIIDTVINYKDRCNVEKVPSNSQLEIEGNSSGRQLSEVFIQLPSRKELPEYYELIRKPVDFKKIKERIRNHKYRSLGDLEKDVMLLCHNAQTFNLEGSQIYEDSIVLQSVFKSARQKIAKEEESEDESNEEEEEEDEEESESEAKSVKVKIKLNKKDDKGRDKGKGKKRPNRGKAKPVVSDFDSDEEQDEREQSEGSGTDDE

[16] = test system: MV4-11; assay: Antiproliferative activity against human MC4-11 cells assessed as reduction in cell viability after 5 days by Celltiter-Glo assay; details: MV4-11, 120 h
[17] = target: Bromodomain-containing protein 4 (Homo sapiens) (UniProt O60885); assay: Inhibition of BRD4-BD1 (unknown origin) at 1 uM using acetylated H4 as substrate incubated for 1 hr by AlphaScreen assay
[18] = target: CREB-binding protein (Homo sapiens) (UniProt Q92793); assay: Binding affinity to CBP-BRD (unknown origin) assessed as change in melting temperature at 50 uM by thermal shift assay
[19] = target: Bromodomain-containing protein 2 (Homo sapiens) (UniProt P25440); assay: Inhibition of BRD2-BD2 (unknown origin) at 1 uM using acetylated H4 as substrate incubated for 1 hr by AlphaScreen assay
Chain of Bromodomain-containing protein 2 (Homo sapiens) (P25440 whole entry, looked up): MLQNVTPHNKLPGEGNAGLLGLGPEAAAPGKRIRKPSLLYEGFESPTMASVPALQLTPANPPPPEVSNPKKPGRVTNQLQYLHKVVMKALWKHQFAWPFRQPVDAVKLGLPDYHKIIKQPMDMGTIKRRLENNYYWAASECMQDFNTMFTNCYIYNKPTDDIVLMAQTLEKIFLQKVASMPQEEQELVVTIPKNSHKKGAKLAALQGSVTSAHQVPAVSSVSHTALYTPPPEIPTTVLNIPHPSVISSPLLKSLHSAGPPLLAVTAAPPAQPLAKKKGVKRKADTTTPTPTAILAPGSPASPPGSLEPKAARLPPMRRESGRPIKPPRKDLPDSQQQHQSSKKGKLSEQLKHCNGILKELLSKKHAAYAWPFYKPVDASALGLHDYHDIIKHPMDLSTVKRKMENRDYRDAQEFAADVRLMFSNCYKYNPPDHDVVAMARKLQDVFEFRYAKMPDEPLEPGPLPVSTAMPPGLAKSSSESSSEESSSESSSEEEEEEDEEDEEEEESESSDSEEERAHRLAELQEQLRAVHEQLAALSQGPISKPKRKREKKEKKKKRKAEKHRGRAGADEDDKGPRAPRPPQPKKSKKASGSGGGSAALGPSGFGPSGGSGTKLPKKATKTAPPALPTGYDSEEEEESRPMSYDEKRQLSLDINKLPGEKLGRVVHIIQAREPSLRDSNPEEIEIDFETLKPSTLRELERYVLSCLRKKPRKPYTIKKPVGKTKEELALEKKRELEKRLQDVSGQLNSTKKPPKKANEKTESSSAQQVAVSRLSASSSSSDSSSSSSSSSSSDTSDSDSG

[20] = target: Bromodomain-containing protein 4 (Homo sapiens) (UniProt O60885); assay: Inhibition of BRD4-BD2 (unknown origin) at 1 uM using acetylated H4 as substrate incubated for 1 hr by AlphaScreen assay
[21] = target: Bromodomain-containing protein 2 (Homo sapiens) (UniProt P25440); assay: Binding affinity to BRD2-BD1 (unknown origin) assessed as change in melting temperature at 50 uM by thermal shift assay
[22] = target: SWI/SNF-related matrix-associated actin-dependent regulator of chromatin subfamily A member 2 (Homo sapiens) (UniProt P51531); assay: Binding affinity to SMARCA2-BRD (unknown origin) assessed as change in melting temperature at 50 uM by thermal shift assay
[23] = target: Bromodomain-containing protein 2 (Homo sapiens) (UniProt P25440); assay: Binding affinity to BRD2-BD2 (unknown origin) assessed as change in melting temperature at 50 uM by thermal shift assay
[24] = target: Bromodomain-containing protein 2 (Homo sapiens) (UniProt P25440); assay: Inhibition of BRD2-BD1 (unknown origin) at 1 uM using acetylated H4 as substrate incubated for 1 hr by AlphaScreen assay
[25] = target: T1, Nucleosome-remodeling factor subunit BPTF; assay: Displacement of Halo-tagged histone H4 from NanoLuc-tagged BPTF (unknown origin) expressed in HEK293 cells by NanoBRET assay; type: cell-based
[26] = target: T1, Nucleosome-remodeling factor subunit BPTF; assay: Inhibition of BPTF in human MV4-11 cells assessed as reduction in CDK6 mRNA level incubated for 24 hrs by RT-PCR analysis; type: cell-based; details: dose 2.5-20 µM
[27] = target: T1, Nucleosome-remodeling factor subunit BPTF; assay: Inhibition of BPTF in human MV4-11 cells assessed as reduction in bcl2 mRNA level incubated for 24 hrs by RT-PCR analysis; type: cell-based; details: dose 2.5-20 µM
[28] = target: T1, Nucleosome-remodeling factor subunit BPTF; assay: Binding affinity to N-terminal GST-tagged human BPTF (2914 to 3037 residues) expressed in Escherichia coli BL21-CodonPlus (DE3) cells at 200 uM by CPMG NMR spectroscopy
[29] = target: T1, Nucleosome-remodeling factor subunit BPTF; assay: Inhibition of BPTF in human MV4-11 cells assessed as reduction in c-Myc mRNA level incubated for 24 hrs by RT-PCR analysis; type: cell-based; details: dose 2.5-20 µM
[30] = target: Histone acetyltransferase p300 (Homo sapiens) (UniProt Q09472); assay: Binding affinity to p300-BRD (unknown origin) assessed as change in melting temperature at 50 uM by thermal shift assay
[31] = target: T1, Nucleosome-remodeling factor subunit BPTF; assay: Binding affinity to N-terminal GST-tagged human BPTF (2914 to 3037 residues) expressed in Escherichia coli BL21-CodonPlus (DE3) cells at 200 uM by STD NMR spectroscopy
[32] = target: Bromodomain-containing protein 4 (Homo sapiens) (UniProt O60885); assay: Binding affinity to BRD4-BD1 (unknown origin) assessed as change in melting temperature at 50 uM by thermal shift assay
[33] = target: Histone acetyltransferase p300 (Homo sapiens) (UniProt Q09472); assay: Inhibition of p300-BRD (unknown origin) at 1 uM using acetylated H4 as substrate incubated for 1 hr by AlphaScreen assay
[34] = test system: MV4-11; assay: Induction of cell cycle arrest in human MV4-11 cells assessed as accumulation at G1 phase after 24 hrs by propidium iodide staining based flow cytometry analysis; type: functional; details: dose 5-20 µM
[35] = target: T1, Nucleosome-remodeling factor subunit BPTF; assay: Inhibition of N-terminal GST-tagged human BPTF (2914 to 3037 residues) expressed in Escherichia coli BL21-CodonPlus (DE3) cells at 1 uM incubated for 1 hr by AlphaScreen assay relative to control
[36] = target: T1, Nucleosome-remodeling factor subunit BPTF
Description: Binding affinity to BPTF (unknown origin) expressed in Escherichia coli BL21 (DE3) cells by SPR analysis

SMILES: CCCNc1cc(-c2ccc3c(c2)c(C)cn3CCCN(C)C)nc(S(C)(=O)=O)n1
IC50 [1]: 0.0586 µM

SMILES: CCNc1cc(-c2ccc3c(ccn3CCCN(C)C)c2)nc(S(C)(=O)=O)n1
IC50 [1]: 0.0288 µM

SMILES: CCCNc1cc(-c2cc(OC)c3c(ccn3CCCN(C)C)c2)nc(S(C)(=O)=O)n1
IC50 [1]: 0.0638 µM

SMILES: CNc1cc(-c2ccc3c(ccn3CCCN(C)C)c2)nc([S+](C)[O-])n1 (stereo not drawn)
IC50 [1]: 0.0593 µM

SMILES: CNc1cc(-c2ccc3[nH]ccc3c2)nc(S(C)(=O)=O)n1
ΔTm [3]: 1.22 °C | Kd [4]: 2.81 µM | ΔTm [5]: 2.4 °C | ΔTm [6]: 1.67 °C | IC50 [1]: 0.698 µM | ΔTm [7]: 1.29 °C

SMILES: CCCNc1cc(-c2ccc3c(ccn3CCCN(C)C)c2)nc([S+](C)[O-])n1 (stereo not drawn)
IC50 [1]: 0.145 µM

SMILES: CCCCNc1cc(-c2ccc3c(ccn3CCCN(C)C)c2)nc(S(C)(=O)=O)n1
IC50 [1]: 0.114 µM

SMILES: CN(C)CCCn1ccc2cc(-c3cc(N(C)C)nc(S(C)(=O)=O)n3)ccc21
IC50 [1]: 14.7 µM

SMILES: CNc1cc(-c2ccc3ccn(CCCN(C)C)c3c2)nc(S(C)(=O)=O)n1
IC50 [1]: 2.1 µM

SMILES: Cc1c(Nc2ccc(S(=O)(=O)N3CCN(C)CC3)cc2F)nc2ccc(-c3cnn(C4CC4)c3)cn2c1=O
Kd [2]: 0.071 µM

Further lines, with some results ahead:

IC50 [1]: 0.157 µM
SMILES: Cc1cn(CCCN(C)C)c2ccc(-c3nc(S(C)(=O)=O)nc4[nH]ccc34)cc12

Kd [2]: 17.9 µM
SMILES: CCOc1c(I)cc(C(N)=O)cc1OC

IC50 [1]: 0.0327 µM
SMILES: CNc1cc(-c2ccc3c(ccn3CCCN(C)C)c2)nc(S(C)(=O)=O)n1

IC50 [1]: 7.8 µM
SMILES: CNc1cc(-c2ccccc2)nc(S(C)(=O)=O)n1

IC50 [1]: 1.7 µM
SMILES: CNc1cc(-c2cccc3ncccc23)nc(S(C)(=O)=O)n1

IC50 [1]: 0.0369 µM
SMILES: CNc1cc(-c2ccc3c(ccn3CCN(C)C)c2)nc(S(C)(=O)=O)n1

ΔTm [3]: 3.87 °C | Kd [4]: 49.6 µM | ΔTm [5]: 8.9 °C | ΔTm [6]: 7.97 °C | IC50 [1]: 0.016 µM | ΔTm [7]: 6.12 °C
SMILES: CCCNc1cc(-c2ccc3c(ccn3CCCN(C)C)c2)nc(S(C)(=O)=O)n1

Kd [4]: 0.0207 µM | inhibition [10]: inactive | ΔTm [5]: 7.66 °C | Activity [13]: inactive | inhibition [15]: inactive | IC50 [16]: 0.89 µM | inhibition [17]: inactive | Activity [18]: inactive | inhibition [19]: inactive | inhibition [20]: inactive | Activity [21]: inactive | Activity [22]: inactive | ΔTm [6]: 6.5 °C | Activity [23]: inactive | IC50 [1]: 0.0269 µM | inhibition [24]: inactive | EC50 [25]: 0.12 µM | inhibition [26]: Dose-Dependent Effect | ΔTm [7]: 5.02 °C | inhibition [27]: Dose-Dependent Effect | Activity [28]: Active | inhibition [29]: Dose-Dependent Effect | Activity [30]: inactive | Activity [31]: Active | Activity [32]: inactive | inhibition [33]: inactive | inhibition [35]: 100%
SMILES: CN(C)CCCn1ccc2cc(-c3nc(S(C)(=O)=O)nc4[nH]ccc34)ccc21
Activity [8]: Dose-Dependent Effect | Activity [9]: Active | Activity [11]: Non-Toxic | Activity [12]: Dose-Dependent Effect | Activity [14]: Non-Toxic | Activity [34]: Dose-Dependent Effect

IC50 [1]: 0.288 µM
SMILES: CCC(C)Nc1cc(-c2ccc3c(ccn3CCCN(C)C)c2)nc(S(C)(=O)=O)n1 (stereo not drawn)

Kd [36]: 0.2 µM | Kd [2]: 0.12 µM
SMILES: CN(C)CCCOc1ccc(-c2cc(NCCCn3cccn3)nc(S(C)(=O)=O)n2)cc1
